Data from PubChem BioAssay AID720632 (Broad Institute, 2013).
Active and inactive are the calls of the source. The rule behind the calls is not given here.

Target: Caspase-6 (Homo sapiens) (UniProt P55212)
Assay: human caspase-6 inhibitors, dose response, biochemical, VEID-R110 fluorescence, cherry-pick (AID 720632)
Details: caspase-6, VEID-R110 fluorogenic substrate; at 26 µM (top of the series)

Chain of Caspase-6 (Homo sapiens) (P55212 24-179 limits assumed): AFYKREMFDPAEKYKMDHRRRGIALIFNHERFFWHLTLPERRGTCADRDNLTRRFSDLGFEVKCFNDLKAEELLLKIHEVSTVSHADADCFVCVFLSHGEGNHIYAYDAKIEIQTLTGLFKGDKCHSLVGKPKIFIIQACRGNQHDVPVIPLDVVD
Chain of Caspase-6 (Homo sapiens) (P55212 194-293 limits assumed): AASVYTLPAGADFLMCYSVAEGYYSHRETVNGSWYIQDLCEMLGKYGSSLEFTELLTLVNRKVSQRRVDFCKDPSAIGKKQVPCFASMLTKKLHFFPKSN

Q: Which “activity change, negative = inhibition” value does the source give for COc1nc(C)c2cc(C)oc2n1 here?
A: Its value is “inactive”.

Q: For NNC(=O)CC1=NNC(=O)C1, which “activity change, negative = inhibition” value is on record?
A: The value was “inactive”.

Q: How did the “activity change, negative = inhibition” value turn out when O=S(=O)(c1cccc2cccnc12)N1CCN(c2ccc(F)cc2)CC1 was run?
A: Its value is “inactive”.

Q: With COCCNc1nc(-c2ccc(OC)cc2)c(-c2ccc(OC)cc2)s1 as the molecule, how does the “activity change, negative = inhibition” value read?
A: Its value is “inactive”.

Q: How did the “activity change, negative = inhibition” value turn out when S=c1[nH]c2cc(Cl)c3cccnc3c2o1 was run?
A: Its value is “inactive”.

Q: With COC(=O)[C@H]1[C@H](CO)[C@H]2Cn3c(cccc3=O)[C@H]2N1CC1CCOCC1 as the molecule, how does the “activity change, negative = inhibition” value read?
A: Its value is “inactive”.

Q: Which “activity change, negative = inhibition” value does the source give for O=C(COC(=O)c1ccc([N+](=O)[O-])o1)Nc1ccc(N2CCOCC2)cc1 here?
A: Its value is “inactive”.

Q: For O=C(O)c1ccc(N2C(=O)CC(N3CCN(c4cccc(C(F)(F)F)c4)CC3)C2=O)cc1 (configuration not stated), which “activity change, negative = inhibition” value is on record?
A: The value was “inactive”.

Q: How did the “activity change, negative = inhibition” value turn out when Cc1csc(=O)n1CC(=O)OCC(=O)NCc1ccc(F)cc1 was run?
A: Its value is “inactive”.

Q: Which “activity change, negative = inhibition” value does the source give for O=C(NC(=O)c1csnn1)Nc1ccccc1Cl here?
A: Its value is “inactive”.

Q: For O=C(OCc1ccccc1)N1CCCC2CC1c1ccccc12 (configuration not stated), which “activity change, negative = inhibition” value is on record?
A: Its value is “inactive”.

Q: With Nc1ccc(Sc2ccccc2Cl)nc1 as the molecule, how does the “activity change, negative = inhibition” value read?
A: Its value is “inactive”.

Q: For CCCN1C[C@@H](C)[C@H](OC)CN(C)C(=O)c2ccc(NC(=O)c3ccccc3)cc2OC[C@@H]1C, which “activity change, negative = inhibition” value is on record?
A: The value was “inactive”.

Q: With Cc1cccc(C)c1OCc1nc2ccccc2[nH]1 as the molecule, how does the “activity change, negative = inhibition” value read?
A: Its value is “inactive”.

Q: CCC(=O)N1CCC1(C)C(=O)Nc1ccc2c(c1)CCN2C(C)=O (configuration not stated) was tested. Which “activity change, negative = inhibition” value did it give?
A: The value was “inactive”.

Q: Which “activity change, negative = inhibition” value does the source give for O=C(Nc1cc(Cl)cc(Cl)c1)c1coc(=O)c(Br)c1 here?
A: The value was “inactive”.

Q: Which “activity change, negative = inhibition” value does the source give for C[C@@H](NC(=O)C[C@@H]1CC[C@@H](NC(=O)CN2CCOCC2)[C@@H](CO)O1)c1ccccc1 here?
A: The value was “inactive”.

Q: How did the “activity change, negative = inhibition” value turn out when O=C1C2C3C=CC(CC3)C2C(=O)N1c1nccs1 (configuration not stated) was run?
A: The value was “inactive”.

Q: How did the “activity change, negative = inhibition” value turn out when CCN(CC)c1nc(N)c2c(N)nc(OC)cc2c1C#N was run?
A: Its value is “inactive”.

Q: For O=C(NN=C1CCCC1)c1n[nH]c2c1CCC2, which “activity change, negative = inhibition” value is on record?
A: Its value is “inactive”.

Q: O=C1[C@H]2[C@@H](c3ccccc3)N[C@]3(CCCN(CC4CCCCC4)C3=O)[C@H]2C(=O)N1Cc1ccccc1 was tested. Which “activity change, negative = inhibition” value did it give?
A: The value was “inactive”.

Q: COc1ccc(N2C(=O)Cc3ccccc3C2=O)cc1 was tested. Which “activity change, negative = inhibition” value did it give?
A: Its value is “inactive”.

Q: For N/C(Cc1cccc2ccccc12)=N\OC(=O)c1ccccc1F, which “activity change, negative = inhibition” value is on record?
A: The value was “inactive”.

Q: For OC[C@H]1[C@H](c2ccc(-c3ccccc3F)cc2)[C@H]2CN(Cc3cccnc3)CCCCN21, which “activity change, negative = inhibition” value is on record?
A: The value was “inactive”.

Q: CCCN1C[C@@H](C)[C@@H](OC)CN(C)C(=O)c2ccc(NC(=O)CC)cc2OC[C@@H]1C was tested. Which “activity change, negative = inhibition” value did it give?
A: Its value is “inactive”.

Q: For CN1CCN(NC(=O)NC2CCCCC2)CC1, which “activity change, negative = inhibition” value is on record?
A: The value was “inactive”.

Q: For Cc1ccccc1CN(C)C(=O)COC(=O)CSc1ccc([N+](=O)[O-])cc1, which “activity change, negative = inhibition” value is on record?
A: The value was “inactive”.

Q: For CC1(C)COC(/C=C/c2cccc([N+](=O)[O-])c2)=N1, which “activity change, negative = inhibition” value is on record?
A: Its value is “inactive”.

Q: Which “activity change, negative = inhibition” value does the source give for COc1cc(Br)cc(CN2CCN(C/C=C/c3ccccc3)CC2)c1O here?
A: The value was “inactive”.

Q: For CC(=O)N1c2ccc(S(=O)(=O)N(C)CC(=O)NCc3ccc(C)cc3)cc2CC1C (configuration not stated), which “activity change, negative = inhibition” value is on record?
A: The value was “inactive”.

Q: For Cc1ccc(NC(=O)C(c2ccccc2)N2CCN(CC(=O)N3CCOCC3)CC2)cc1Cl (configuration not stated), which “activity change, negative = inhibition” value is on record?
A: Its value is “inactive”.

Q: With CC(C)C(=O)N1CCN(c2ccccc2NC(=O)c2cccc3ccccc23)CC1 as the molecule, how does the “activity change, negative = inhibition” value read?
A: The value was “inactive”.

Q: With O=C(Cc1ccc([N+](=O)[O-])cc1)c1c(O)cc(O)cc1O as the molecule, how does the “activity change, negative = inhibition” value read?
A: The value was “inactive”.

Q: Which “activity change, negative = inhibition” value does the source give for CO[C@H]1CN(C)C(=O)c2ccc(NC(=O)c3ccccc3)cc2OC[C@H](C)N(C(=O)C2CC2)C[C@H]1C here?
A: The value was “inactive”.

Q: Which “activity change, negative = inhibition” value does the source give for CC(C)OCCCNC(=O)c1c(N)n(CC2CCCO2)c2nc3ccccc3nc12 (configuration not stated) here?
A: Its value is “inactive”.

Q: How did the “activity change, negative = inhibition” value turn out when O=C(COC(=O)c1ccc([N+](=O)[O-])o1)Nc1ccc2c(c1)OC(F)(F)O2 was run?
A: The value was “inactive”.

Q: With Cc1ccc(NC(=O)c2ocnc2C)cc1Cl as the molecule, how does the “activity change, negative = inhibition” value read?
A: The value was “inactive”.
